# Target: T1, HCV NS3/4A 1b protease enzyme (wild type) (Hepatitis C virus genotype 1b, UniProt P26663)
# T1 construct: 10× stocks of NS3/4A protease enzyme from Bioenza (Mountain View, Calif.); purchased Bioenza
# Assay: HCV protease FRET assay (IC50_APP), wild type NS3/4A 1b
# Format: biochemical
# Settings: not given
# Protocol: HCV Protease FRET Assay for WT and Mutated NS3/4A 1b Enzymes (IC50_APP).
# The following protocol was used to generate “apparent” IC50 (IC50_APP) values as depicted in Table 6, below. Without wishing to be bound by any particular theory, it is believed that IC50_APP, contrasted with IC50 values, may provide a more useful indication of time-dependent inhibition, and are thus more representative of binding affinity. […] 5 μL of each enzyme were added to Corning (#3575) 384-well, black, microtiter plates (Corning, N.Y.) after spotting a 0.5 μL volume of 50% DMSO and serially diluted compounds prepared in 50% DMSO. Protease reactions were immediately started after enzyme addition with the addition of 45 μL of the FRET substrate and monitored for 60-90 minutes at λex485/λem520 in a Synergy plate reader from BioTek (Winooski, Vt.). At the conclusion of each assay, progress curves from each well were examined for linear reaction kinetics and fit statistics (R^2, 95% confidence intervals, absolute sum of squares). Initial velocity (0 minutes to 15+ minutes) from each reaction was determined from the slope of a plot of relative fluorescence units vs time (minutes) and then plotted against inhibitor concentration as a percent of the no inhibitor and no enzyme controls to estimate apparent IC50 from log [Inhibitor] vs Response. (Variable Slope model in GraphPad Prism from GraphPad Software (San Diego, Calif.).)
# T1 sequence (P26663 1658-1711): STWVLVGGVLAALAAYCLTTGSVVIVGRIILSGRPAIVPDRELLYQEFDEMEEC
# T1 sequence (P26663 1027-1657): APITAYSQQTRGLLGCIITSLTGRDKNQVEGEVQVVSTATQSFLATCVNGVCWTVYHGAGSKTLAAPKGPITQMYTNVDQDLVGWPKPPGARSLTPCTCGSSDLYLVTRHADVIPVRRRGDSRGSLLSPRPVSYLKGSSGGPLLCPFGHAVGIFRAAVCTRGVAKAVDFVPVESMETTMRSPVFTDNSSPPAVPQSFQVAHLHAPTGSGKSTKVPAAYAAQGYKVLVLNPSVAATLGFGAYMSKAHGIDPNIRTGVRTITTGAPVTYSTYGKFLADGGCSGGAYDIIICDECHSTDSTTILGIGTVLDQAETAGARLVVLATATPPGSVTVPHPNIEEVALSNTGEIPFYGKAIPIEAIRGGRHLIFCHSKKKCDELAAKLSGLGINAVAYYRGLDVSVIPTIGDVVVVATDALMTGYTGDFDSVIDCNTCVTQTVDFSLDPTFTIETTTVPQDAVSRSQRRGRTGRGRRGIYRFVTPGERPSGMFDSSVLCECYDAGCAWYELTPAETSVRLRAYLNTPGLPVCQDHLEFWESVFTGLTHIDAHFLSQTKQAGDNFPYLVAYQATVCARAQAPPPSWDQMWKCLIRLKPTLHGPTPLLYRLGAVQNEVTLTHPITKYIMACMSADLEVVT
row,SMILES,IC50 [nM]
1,"C=C[C@@H]1C[C@]1(NC(=O)[C@@H]1CC(OC(=O)N2Cc3cccc(F)c3C2)CN1C(=O)[C@H](CNC(=O)[C@@H]1CCC(=O)O1)NC(=O)OC(C)(C)C)C(=O)NS(=O)(=O)C1CC1 (stereo partly drawn) [XVI-21, (5S)-1-((S)-2-(tert-butoxycarbonylamino)-3-((S)-5-oxotetrahydrofuran-2-carboxamido)propanoyl)-5-((1R,2S)-1-(cyclopropylsulfonylcarbamoyl)-2-vinylcyclopropylcarbamoyl)pyrrolidin-3-yl 4-fluoroisoindoline-2-carboxylate]",1 to 10

# Target: T2, p120γ (PI3Kγ) (Homo sapiens, UniProt P48736)
# T2 construct: purchased BPS Bioscience 40625
# Assay: HTRF assay, p120γ
# Format: biochemical
# Settings: PI3Kγ; read-out: PI3Kγ HTRF IC50 Inhibition Designation
# From the text: The protocol below describes an end-point, competition-binding HTRF assay used to measure inherent potency of test compounds against active p110α/p85α, p110β/p85α, p120γ enzymes. The mechanics of the assay platform are best described by the vendor (Millipore, Billerica, Mass.) on their website at the following URL: http://www.millipore.com/coa/tech1/74jt4z.
# Briefly, Stop solution (Stop A, #33-007 and Stop B, #33-009; 3:1 ratio) and Detection Mix (DMC, #33-015 with DMA, #33-011 and DMB, #33-013; 18:1:1 ratio) were prepared as recommended by the manufacturer ˜2 hrs prior to use. Additionally, 1× reaction buffer (4× buffer stock #33-003), a 1.4× stock of enzyme from BPS Bioscience (San Diego, Ca) or Millipore (Billerica, Mass.) with di-C8-PIP2 lipid substrate (#33-005), and a 4×ATP solution (#A7699) Sigma/Aldrich (St. Louis, Mo.) were prepared in 1×reaction buffer. 15 μL of enzyme and lipid substrate mix were pre-incubated in a Corning (#3573) 384-well, black, non-treated microtiter plate (Corning, N.Y.) for 30 min at 25° C. with a 0.5 μL volume of 50% DMSO and serially diluted compounds prepared in 50%-75% DMSO. Lipid kinase reactions were started with the addition of 5 μL of ATP solution, mixed for 15 sec on a rotary plate shaker and incubated for 15-30 minutes at 25° C. Next, reactions were stopped with a 5 μL addition of Stop solution followed by a 5 μL volume of Detection Mix. Stopped reactions were equilibrated for 1 and 18 hrs at room temperature and then read in a Synergy4 plate reader from BioTek (Winooski, Vt.) at λex330-80/λem620-35 and λem665-7.5. At the conclusion of each assay, the HTRF ratio from fluorescence emission values for each well was calculated and % Inhibition determined from averaged controls wells. % Inhibition values for each compound re then plotted against inhibitor concentration to estimate IC50 from log [Inhibitor] vs Response, Variable Slope model in GraphPad Prism from GraphPad Software (San Diego, Calif.).
# Reagents Used in Optimized Protocol: • [p120γ]=1-4 nM, [ATP]=50 μM, [di-C8-PIP2]=10 μM • (40625; BPS Bioscience)
# T2 sequence (P48736 whole entry): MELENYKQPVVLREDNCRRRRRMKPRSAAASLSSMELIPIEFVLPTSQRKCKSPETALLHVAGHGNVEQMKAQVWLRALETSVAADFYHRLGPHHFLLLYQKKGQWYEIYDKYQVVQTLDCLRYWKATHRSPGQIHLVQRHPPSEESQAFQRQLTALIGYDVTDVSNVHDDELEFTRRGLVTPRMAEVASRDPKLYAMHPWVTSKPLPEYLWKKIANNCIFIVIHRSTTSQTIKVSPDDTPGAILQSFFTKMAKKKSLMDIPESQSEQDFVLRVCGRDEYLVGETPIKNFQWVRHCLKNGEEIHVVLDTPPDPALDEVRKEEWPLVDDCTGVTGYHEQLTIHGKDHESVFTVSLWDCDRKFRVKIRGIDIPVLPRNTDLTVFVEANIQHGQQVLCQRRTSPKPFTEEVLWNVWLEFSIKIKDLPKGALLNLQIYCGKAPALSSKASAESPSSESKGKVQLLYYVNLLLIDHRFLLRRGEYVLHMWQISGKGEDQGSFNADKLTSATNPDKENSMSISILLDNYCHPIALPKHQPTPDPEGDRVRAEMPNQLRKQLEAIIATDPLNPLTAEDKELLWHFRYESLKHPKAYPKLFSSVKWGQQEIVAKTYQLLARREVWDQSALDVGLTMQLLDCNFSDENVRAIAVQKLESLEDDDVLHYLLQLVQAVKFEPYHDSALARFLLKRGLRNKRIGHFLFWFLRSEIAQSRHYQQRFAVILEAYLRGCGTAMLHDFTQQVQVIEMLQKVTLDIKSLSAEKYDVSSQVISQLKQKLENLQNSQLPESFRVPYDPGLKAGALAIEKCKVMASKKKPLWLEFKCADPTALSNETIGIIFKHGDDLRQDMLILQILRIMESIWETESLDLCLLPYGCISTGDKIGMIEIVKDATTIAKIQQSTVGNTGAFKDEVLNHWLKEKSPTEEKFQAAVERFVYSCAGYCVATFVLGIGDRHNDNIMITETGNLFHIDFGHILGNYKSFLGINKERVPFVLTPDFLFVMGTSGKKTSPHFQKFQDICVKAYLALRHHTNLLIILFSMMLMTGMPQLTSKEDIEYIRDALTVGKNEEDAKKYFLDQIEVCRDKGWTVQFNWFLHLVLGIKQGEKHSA
row,IC50 [nM],SMILES
1,100 to 1000,"C=CC(=O)N(C)Cc1cc2nc(-c3cccc(O)c3)nc(N3CCOCC3)c2s1 [XXII-5, N-((2-(3-hydroxyphenyl)-4-morpholinothieno[3,2-d]pyrimidin-6-yl)methyl)-N-methylacrylamide]"

# Same assay, conditions: p120γ; read-out: Reference Inhibitor IC50
row,IC50 [nM],SMILES
1,55,"Cc1ccc([N+](=O)[O-])cc1S(=O)(=O)N(C)/N=C/c1cnc2ccc(Br)cn12 [PIK75, reference compound]"

# Target: T3, PDPK1 (Homo sapiens, UniProt O15530)
# T3 sequence (O15530 1-556): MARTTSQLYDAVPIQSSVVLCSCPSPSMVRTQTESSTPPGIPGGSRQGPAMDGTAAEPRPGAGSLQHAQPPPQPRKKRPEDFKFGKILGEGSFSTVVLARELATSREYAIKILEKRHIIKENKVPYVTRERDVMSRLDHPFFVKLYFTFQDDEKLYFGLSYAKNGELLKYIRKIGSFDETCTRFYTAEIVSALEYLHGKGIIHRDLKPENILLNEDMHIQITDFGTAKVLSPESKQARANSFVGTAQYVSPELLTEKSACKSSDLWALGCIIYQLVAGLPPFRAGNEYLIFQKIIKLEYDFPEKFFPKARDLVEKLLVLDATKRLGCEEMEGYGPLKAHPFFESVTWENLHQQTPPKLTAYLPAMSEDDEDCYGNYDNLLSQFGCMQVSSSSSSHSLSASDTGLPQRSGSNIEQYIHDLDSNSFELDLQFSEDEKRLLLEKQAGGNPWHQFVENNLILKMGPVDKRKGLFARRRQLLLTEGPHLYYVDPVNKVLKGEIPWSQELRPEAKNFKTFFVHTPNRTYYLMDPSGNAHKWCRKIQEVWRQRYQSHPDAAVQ
# Assay: PDK1-OMNIA kinase assay (ST28-Sox peptide)
# Format: biochemical
# Set-up: purchased Invitrogen, BPS or SignalChem P3001 (Invitrogen), 40080 (BPS), P14-10H (SignalChem)
# Settings: PDPK1 enzyme pre-incubated 30 min at 25° C. with compound; [ATP]=5 μM; ST28-Sox peptide substrate; read-out: Inhibition/Modification Designation (IC50, PDK1-OMNIA)
# Protocol: Briefly, a 10× stock of PDPK1 enzyme from Invitrogen (P3001) or BPS (40080) or SignalChem (P14-10H), 1.13×ATP (AS001A) and ST28-Sox peptide substrate (KNZ1281C) were prepared in 1× kinase reaction buffer consisting of 20 mM Tris, pH 7.5, 5 mM MgCl2, 1 mM EGTA, 5 mM β-glycerophosphate, 5% glycerol (10× stock, KB002A) and 0.2 mM DTT (DS001A). 5 μL of enzyme were pre-incubated in a Corning (#3574) 384-well, white, non-binding surface microtiter plate (Corning, N.Y.) for 30 min at 25° C. with a 0.5 μL volume of 50% DMSO and serially diluted compounds prepared in 50% DMSO. Kinase reactions were started with the addition of 45 […] of the ST28-Sox peptide substrate and monitored every 71 seconds for 30-60 minutes at λex360/λem485 in a Synergy4 plate reader from BioTek (Winooski, Vt.). At the conclusion of each assay, progress curves from each well were examined for linear reaction kinetics and fit statistics (R^2, 95% confidence interval, absolute sum of squares). Post-lag velocity (+10 minutes to 20+ minutes) from each reaction was estimated from the slope of a plot of relative fluorescence units vs time (minutes) and normalized to the no enzyme and no inhibitor control groups for % Inhibition. The resulting inhibition values were then plotted against inhibitor concentration to estimate IC50 from log [Inhibitor] vs Response, Variable Slope model in GraphPad Prism from GraphPad Software (San Diego, Calif.).
# [Reagent] used in provisional protocol(s): Invitrogen—[PDPK1]=5-10 nM, [ATP]=5 μM and [ST28-Sox]=5 μM or 10 μM (ATP KMapp=4-6 μM); BPS—[PDPK1]=10-15 nM, [ATP]=5 μM and [ST28-Sox]=10 μM (ATP KMapp=3-5 μM); SignalChem—[PDPK1]=5-10 nM, [ATP]=5 μM and [ST28-Sox]=5 μM or 10 μM (ATP KMapp ND)
row,IC50 [nM],SMILES
1,< 10,CC(C)(C(N)=O)C(=O)NCCCNc1nc(Nc2cccc(NC(=O)CCC(=O)N3C[C@@H]4CC3C(=O)O4)c2)ncc1Br [XI-48]
2,10 to 100,CC(C)(C(N)=O)C(=O)NCCCNc1nc(Nc2cccc(NC(=O)c3ccc4c(c3)CCC(=O)O4)c2)ncc1Br [XI-36]
3,100 to 1000,CC(C)(C(N)=O)C(=O)NCCCNc1nc(Nc2cccc(NC(=O)CC(NC(=O)CCCC(=O)NCCCOCCOCCOCCCNC(=O)CCCC[C@@H]3SC[C@@H]4NC(=O)N[C@@H]43)C(=O)N3C[C@H]4C[C@@H]3C(=O)O4)c2)ncc1Br (stereo partly drawn) [XI-56]
4,10 to 100,CC(C)(C(N)=O)C(=O)NCCCNc1nc(Nc2ccc(NC(=O)[C@H]3CCC(=O)O3)cc2)ncc1Br [XI-42]
5,10 to 100,C=CC(=O)NCC(=O)Nc1cccc(Nc2ncc(Br)c(NCCCNC(=O)C(C)(C)C(N)=O)n2)c1 [XI-31]
6,< 10,CC(C)(C(N)=O)C(=O)NCCCNc1nc(Nc2ccc(CCC(=O)N3C[C@H]4C[C@@H]3C(=O)O4)cc2)ncc1Br [XI-40]
7,10 to 100,CC(C)(C(N)=O)C(=O)NCCCNc1nc(Nc2cccc(N3C(=O)CCC3=O)c2)ncc1Br [XI-46]
8,100 to 1000,CC1(C)OC2C(=O)CC(C(=O)NCC(=O)Nc3cccc(Nc4ncc(Br)c(NCCCNC(=O)C(C)(C)C(N)=O)n4)c3)C2O1 (stereo not drawn) [XI-32]
9,< 10,CON1C[C@H](NC(=O)CCC(=O)Nc2cccc(Nc3ncc(Br)c(NCCCNC(=O)C(C)(C)C(N)=O)n3)c2)C1=O [XI-47]
10,100 to 1000,CC(C)(C(N)=O)C(=O)NCCCNc1nc(Nc2ccc(NC(=O)[C@@H]3CCC(=O)O3)cc2)ncc1Br [XI-43]
11,10 to 100,CC(C)(C(N)=O)C(=O)NCCCNc1nc(Nc2cccc(NC(=O)[C@@H]3CCC(=O)O3)c2)ncc1Br [XI-52]
12,10 to 100,CC(C)(C(N)=O)C(=O)NCCCNc1nc(Nc2cccc(NC(=O)CNC(=O)[C@@H]3CCC(=O)O3)c2)ncc1Br [XI-37]
13,10 to 100,CC(C)(C(N)=O)C(=O)NCCCNc1nc(Nc2cccc(NC(=O)CC(N)C(=O)N3C[C@H]4C[C@@H]3C(=O)O4)c2)ncc1Br (stereo partly drawn) [XI-33]
14,< 10,CC(C)(C(N)=O)C(=O)NCCCNc1nc(Nc2ccc(CCC(=O)N3C[C@@H]4C[C@H]3C(=O)O4)cc2)ncc1Br [XI-41]
15,10 to 100,CC(C)(C(N)=O)C(=O)NCCCNc1nc(Nc2cccc(NC(=O)[C@H]3CCC(=O)O3)c2)ncc1Br [XI-50]
16,< 10,CC(C)(C(N)=O)C(=O)NCCCNc1nc(Nc2cccc(NC(=O)CCC(=O)Oc3ccccc3)c2)ncc1Br [XI-25]
17,10 to 100,COC1=CC(=O)CC(C(=O)Nc2cccc(Nc3ncc(Br)c(NCCCNC(=O)C(C)(C)C(N)=O)n3)c2)C1 (stereo not drawn) [XI-30]
18,10 to 100,CC(C)(C(N)=O)C(=O)NCCCNc1nc(Nc2cccc(CCC(=O)N3C[C@H]4C[C@@H]3C(=O)O4)c2)ncc1Br [XI-45]
19,10 to 100,CC(C)(C(N)=O)C(=O)NCCCNc1nc(Nc2cccc(NC(=O)C3CC(=O)CC(=O)C3)c2)ncc1Br [XI-29]
20,10 to 100,CC(C)(C(N)=O)C(=O)NCCCNc1nc(Nc2cccc(CCC(=O)N3C[C@@H]4C[C@H]3C(=O)O4)c2)ncc1Br [XI-44]
21,10 to 100,CC(C)(C(N)=O)C(=O)NCCCNc1nc(Nc2cccc(NC(=O)CCC(=O)NC3CCSC3=O)c2)ncc1Br (stereo not drawn) [XI-34]
22,10 to 100,CC(C)(C(N)=O)C(=O)NCCCNc1nc(Nc2cccc(NC(=O)CNC(=O)C3CCSC3=O)c2)ncc1Br (stereo not drawn) [XI-24]
23,< 10,CC(C)(C(N)=O)C(=O)NCCCNc1nc(Nc2cccc(NC(=O)CCC(=O)N3CCC3=O)c2)ncc1Br [XI-55]
24,10 to 100,CC(C)(C(N)=O)C(=O)NCCCNc1nc(Nc2cccc(NC(=O)C3CCSC3=O)c2)ncc1Br (stereo not drawn) [XI-23]
